Measured values reported in patent publication US20230151010A1, “CRYSTALLINE FORMS OF (9R, 135S)-13- {4-[5-CHLORO-2-(4-CHLORO-1H,2,3- TRIAZOL- 1 -YL)PHENYL] -6-OXO- 1,6-DIHYDROPYRIMIDIN- 1-YL}-3-(DIFLUOROMETHYL)-9-METHYL-3,4,7,15- TETRAAZATRICYCLO [ 12.3.1.0 2·6] OCTADECA- 1(18), 2(6), 4, 14, 16-PENTAEN-8-ONE” (Bristol-Myers Squibb Company, priority 2020, published 2023).
One block for each compound: values may come before it.

What was measured:
Format in all cases: physicochemical
[1] = Thermogravimetric analysis (TGA); conditions: heating 10° C./min, nitrogen
Procedure: TA INSTRUMENT® models Q5000, Q500, or 2950 were used to generate TGA data. The measurement was made using standard TA Instruments Platinum pans. The measurement was made at a heating rate of 10° C./min, in a nitrogen environment from room temperature to 300° C., with a sample size about 10-30 mg.
Crystalline Forms A and J were analyzed by thermogravimetric analysis (TGA) according to the conditions described in the General Procedures. Exemplary TGA thermograms for Forms A and J are shown in FIGS. 4 and 13D, respectively.

[2] = Hygroscopicity of forms from the polymorph preparations (method not given)
[3] = VT-PXRD analysis of form change
[4] = Dynamic vapor sorption (DVS)
Procedure: About 20 mg of the crystalline form was transferred into a dynamic vapor sorption instrument from Surface Measurement Systems Ltd. (SMS). The weight change was recorded relative to the relative humidity (Target RH %) at 25° C.
Crystalline Forms A and J were analyzed by dynamic vapor sorption (DVS) according to the conditions described in the General Procedures.

loss of weight in TGA ([1]; below about 250° C.): no significant loss of weight | onset of decomposition in TGA [1]: about 281 °C
SMILES: C[C@@H]1CCC[C@H](n2cnc(-c3cc(Cl)ccc3-n3cc(Cl)nn3)cc2=O)c2cc(ccn2)-c2c(cnn2C(F)F)NC1=O [Form J, (9R,13S)-13-{4-[5-chloro-2-(4-chloro-1H-1,2,3-triazol-1-yl)phenyl]-6-oxo-1,6-dihydropyrimidin-1-yl}-3-(difluoromethyl)-9-methyl-3,4,7,15-tetraazatricyclo[12.3.1.0^2,6]octadeca-1(18),2(6),4,14,16-pentaen-8-one]

hygroscopicity [2]: non-hygroscopic | change in form on VT-PXRD analysis [3]: no change in form
SMILES: C[C@@H]1CCC[C@H](n2cnc(-c3cc(Cl)ccc3-n3cc(Cl)nn3)cc2=O)c2cc(ccn2)-c2c(cnn2C(F)F)NC1=O [Form C, (9R,13S)-13-{4-[5-chloro-2-(4-chloro-1H-1,2,3-triazol-1-yl)phenyl]-6-oxo-1,6-dihydropyrimidin-1-yl}-3-(difluoromethyl)-9-methyl-3,4,7,15-tetraazatricyclo[12.3.1.0^2,6]octadeca-1(18),2(6),4,14,16-pentaen-8-one]

change of crystalline form after being subjected to DVS conditions ([4]; PXRD and IR post-DVS analysis): did not change | hygroscopicity indicated by DVS analysis ([4]; weight change vs relative humidity at 25° C.): not hygroscopic
SMILES: C[C@@H]1CCC[C@H](n2cnc(-c3cc(Cl)ccc3-n3cc(Cl)nn3)cc2=O)c2cc(ccn2)-c2c(cnn2C(F)F)NC1=O [Form A, (9R,13S)-13-{4-[5-chloro-2-(4-chloro-1H-1,2,3-triazol-1-yl)phenyl]-6-oxo-1,6-dihydropyrimidin-1-yl}-3-(difluoromethyl)-9-methyl-3,4,7,15-tetraazatricyclo[12.3.1.0^2,6]octadeca-1(18),2(6),4,14,16-pentaen-8-one]
